The values below come from patent US8232269B2, “Amide compounds useful in therapy” (Pfizer Inc., priority 2008, dated 2012).

A value given as a limit tells only on which side of the number the result lay.

The target in one assay is T1, Progesterone Receptor (PR) (Homo sapiens, UniProt P06401).
T1 construct: endogenous in cells; host or cells: T47D human breast mammary carcinoma cells
T1 sequence (P06401 1-933): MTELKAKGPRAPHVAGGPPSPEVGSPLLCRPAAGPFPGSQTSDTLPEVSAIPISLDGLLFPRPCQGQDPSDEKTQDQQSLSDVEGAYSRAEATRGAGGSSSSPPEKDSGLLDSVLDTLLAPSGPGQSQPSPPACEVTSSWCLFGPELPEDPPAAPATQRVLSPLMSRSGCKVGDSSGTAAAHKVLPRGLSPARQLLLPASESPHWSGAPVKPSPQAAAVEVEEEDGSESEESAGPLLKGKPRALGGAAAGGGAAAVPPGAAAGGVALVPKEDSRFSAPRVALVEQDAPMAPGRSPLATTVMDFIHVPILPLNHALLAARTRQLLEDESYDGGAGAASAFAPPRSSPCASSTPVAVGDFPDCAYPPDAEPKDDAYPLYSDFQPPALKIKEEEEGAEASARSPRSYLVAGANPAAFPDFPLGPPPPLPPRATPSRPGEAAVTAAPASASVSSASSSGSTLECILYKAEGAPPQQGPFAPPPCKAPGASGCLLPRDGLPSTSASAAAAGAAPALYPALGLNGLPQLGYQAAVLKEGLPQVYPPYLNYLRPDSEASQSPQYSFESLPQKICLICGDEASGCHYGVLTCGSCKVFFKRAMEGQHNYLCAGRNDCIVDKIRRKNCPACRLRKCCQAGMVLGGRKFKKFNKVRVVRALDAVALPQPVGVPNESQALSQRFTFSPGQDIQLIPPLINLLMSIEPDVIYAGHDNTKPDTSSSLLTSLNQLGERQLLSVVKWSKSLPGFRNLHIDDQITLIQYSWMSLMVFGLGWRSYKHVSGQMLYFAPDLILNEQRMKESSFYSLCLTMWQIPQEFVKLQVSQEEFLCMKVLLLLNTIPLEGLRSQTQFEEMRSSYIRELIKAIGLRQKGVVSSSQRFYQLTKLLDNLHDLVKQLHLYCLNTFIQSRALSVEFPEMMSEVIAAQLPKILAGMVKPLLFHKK
Briefly: In vitro functional assay for progesterone receptor (PR) antagonists: inhibition of progesterone-induced alkaline phosphatase expression in T47D cells. Format: cell-based. To be noted: antagonist format, 5 nM progesterone, Ki calculated from IC50 with the Cheng-Prusoff equation. The procedure, abridged: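 Antagonist format: T47D cells (8750/well, phenol red-free DMEM + 5% CS-FCS) given half-log compound dilutions plus 5 nM progesterone (final), incubated overnight (≥16 h) at 37 °C. Alkaline phosphatase read by CSPD chemiluminescence after freeze-thaw lysis; 0.1 μM RU-486 final defines minimum.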
Take `CCc1c(-c2ccc(C#N)cc2)nn(C(C)C)c1C(=O)NC` [Example 112, 3-(4-Cyanophenyl)-4-ethyl-1-isopropyl-N-methyl-1H-pyrazole-5-carboxamide]: the Ki (commonly a measure of affinity in units of concentration, obtained from inhibition or displacement) is 26 nM. Still for that read-out and setting: the result for `CNC(=O)CNC(=O)c1c(C)c(-c2ccc(C#N)c(C)c2)nn1C(C)C` [Example 113, 3-(4-Cyano-3-methylphenyl)-1-isopropyl-4-methyl-N-[2-(methylamino)-2-oxoethyl]-1H-pyrazole-5-carboxamide] reads 27.1 nM; that for `CCc1c(-c2ccc(C#N)cc2)nn(C(C)C)c1C(=O)NC[C@H](C)O` [Example 114, 3-(4-Cyanophenyl)-4-ethyl-N-[(2S)-2-hydroxypropyl]-1-isopropyl-1H-pyrazole-5-carboxamide], 30.9 nM. The same measure, in the same setting: in the case of `CCc1c(-c2ccc(C#N)cc2)nn(C(C)C)c1C(=O)NC[C@@H](C)O` [Example 115, 3-(4-Cyanophenyl)-4-ethyl-N-[(2R)-2-hydroxypropyl]-1-isopropyl-1H-pyrazole-5-carboxamide] it was 85 nM; in that of `CCNC(=O)c1c(CC)c(-c2ccc(C#N)cc2)nn1C(C)C` [Example 116, 3-(4-Cyanophenyl)-N,4-diethyl-1-isopropyl-1H-pyrazole-5-carboxamide], 32.1 nM. Same read-out and setting: in the case of `CCc1c(-c2ccc(C#N)cc2)nn(C(C)C)c1C(=O)NC(C)C` [Example 117, 3-(4-Cyanophenyl)-4-ethyl-N,1-diisopropyl-1H-pyrazole-5-carboxamide] it was 36.4 nM. Take `CCc1c(-c2ccc(C#N)cc2)nn(C(C)C)c1C(=O)NCC(C)(C)O` [Example 118, 3-(4-Cyanophenyl)-4-ethyl-N-(2-hydroxy-2-methylpropyl)-1-isopropyl-1H-pyrazole-5-carboxamide]: the Ki was 54.8 nM. For `CCc1c(-c2ccc(C#N)cc2)nn(C(C)C)c1C(=O)NCC(=O)NC` [Example 119, 3-(4-Cyanophenyl)-4-ethyl-1-isopropyl-N-[2-(methylamino)-2-oxoethyl]-1H-pyrazole-5-carboxamide], the Ki was > 145 nM. Turning to `CNC(=O)CNC(=O)c1c(C2CC2)c(-c2ccc(C#N)c(C)c2)nn1C(C)C` [Example 120, 3-(4-Cyano-3-methylphenyl)-4-cyclopropyl-1-isopropyl-N-[2-(methylamino)-2-oxoethyl]-1H-pyrazole-5-carboxamide], the Ki is 8.66 nM.

As to `Cc1cc(-c2nn(C(C)C)c(C(=O)NC3CC3)c2C#N)ccc1C#N` [Example 121], the Ki is 5.06 nM. For the compound `CNC(=O)c1c(C#N)c(-c2ccc(C#N)c(C)c2)nn1C(C)C` [Example 122], the Ki was 5.18 nM. On to `Cc1cc(-c2nn(C(C)C)c(C(=O)NC(C)C)c2C#N)ccc1C#N` [Example 123], for which the Ki was 5.49 nM. On the same count and under the same terms, the result for `Cc1cc(-c2nn(C(C)C)c(C(=O)NC[C@H](C)O)c2C#N)ccc1C#N` [Example 124] reads 5.93 nM.

As to `CC(C)n1nc(-c2ccc(C#N)cc2)c(C2CC2)c1C(=O)NC1CCS(=O)(=O)C1` (stereo not drawn) [Example 125], the Ki is 8.28 nM. With `Cc1cc(-c2nn(C(C)C)c(C(=O)NCC(C)(C)O)c2C#N)ccc1C#N` [Example 126], the Ki is 10.2 nM.

For `Cc1c(-c2ccc(C#N)cc2)nn(C2CCOC2)c1C(=O)NCC1CC1` (stereo not drawn) [Example 127], the Ki was 11.3 nM. Same read-out and setting: the result for `Cc1cc(-c2nn(C(C)C)c(C(=O)NC[C@@H](C)O)c2C#N)ccc1C#N` [Example 128] reads 11.9 nM; that for `CC(C)n1nc(-c2ccc(C#N)cc2)c(Cl)c1C(=O)NC[C@H](C)O` [Example 129], 13.2 nM; that for `CCc1c(-c2ccc(C#N)cc2)nn(C(C)CC)c1C(=O)NCC(C)(C)O` (stereo not drawn) [Example 130], 14.8 nM. Consider `CC(C)n1nc(-c2ccc(C#N)cc2)c(Cl)c1C(=O)NC1CC1` [Example 132], for which the Ki was 17.8 nM.

Turning to `CC(C)n1nc(-c2ccc(C#N)cc2)c(C#N)c1C(=O)NC[C@@H](C)O` [Example 133], the Ki is 19.3 nM. For the compound `CC(C)n1nc(-c2ccc(C#N)cc2)c(C#N)c1C(=O)NCC(C)(C)O` [Example 134], the Ki was 21.9 nM.

A further assay has as its system ovarian cancer patients.
Assay: not given
To be noted: RU486 200 mg/day; ovarian cancer patients refractory to cisplatin and paclitaxel; cited from earlier work.
In the case of `CC#C[C@]1(O)CC[C@H]2[C@@H]3CCC4=CC(=O)CCC4=C3[C@@H](c3ccc(N(C)C)cc3)C[C@@]21C` [RU486, mifepristone], the “patients with a clinical response” value is 26.5%.

In another assay the test system is Brca1/p53-deficient mice.
Assay: not given
Conditions: treatment of Brca1/p53-deficient mice; cited from earlier work.
`CC#C[C@]1(O)CC[C@H]2[C@@H]3CCC4=CC(=O)CCC4=C3[C@@H](c3ccc(N(C)C)cc3)C[C@@]21C` [RU486, mifepristone]: the “effect on mammary tumorigenesis” value is listed as “prevented mammary tumorigenesis”.
